# Results taken from PubChem BioAssay (NCI).
#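 The compound was tested at five concentrations on cells cultured in 96-well plates, with a 48-hour exposure period. TGI: total growth inhibition.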
# Tests used:
# Assay in all cases: NCI anticancer screen, dose series, 48 h
# ACHN renal = test system: ACHN renal
# COLO 205 colon = test system: COLO 205 colon
# EKVX NSCLC = test system: EKVX NSCLC
# HT29 colon = test system: HT29 colon
# KM12 colon = test system: KM12 colon
# MDA-MB-435 = test system: MDA-MB-435
# SF-268 CNS = test system: SF-268 CNS
# SNB-19 CNS = test system: SNB-19 CNS
# T-47D breast = test system: T-47D breast
# UACC-62 melanoma = test system: UACC-62 melanoma
Compound,TGI (ACHN renal),TGI (COLO 205 colon),TGI (EKVX NSCLC),TGI (HT29 colon),TGI (KM12 colon),TGI (MDA-MB-435),TGI (SF-268 CNS),TGI (SNB-19 CNS),TGI (T-47D breast),TGI (UACC-62 melanoma)
COC(=O)C12Oc3ccc(-c4ccc5c(c4O)C(O)=C4C(=O)CC(C)C(O)C4(C(=O)OC)O5)c(O)c3C(O)=C1C(=O)CC(C)C2O (configuration not stated),> 32.1 µM,0.195 µM,1.49 µM,0.479 µM,> 100 µM,1.96 µM,1.84 µM,> 100 µM,> 29.1 µM,1.37 µM
C=C(C)CCC1C=[N+]([O-])OC(C)(C)C1(C)C (configuration not stated),> 100 µM,> 100 µM,> 100 µM,> 100 µM,> 100 µM,> 100 µM,> 100 µM,–,> 100 µM,> 100 µM
COc1ccc2[nH]c3c(c2c1)CC(=O)N1CCC[C@H](C1)CC31OCCCO1,> 100 µM,> 100 µM,> 100 µM,> 100 µM,> 100 µM,> 100 µM,> 100 µM,> 100 µM,> 100 µM,> 100 µM
COc1ccccc1C(=O)OCC1CCCN2CCCCC12 (configuration not stated),> 100 µM,> 100 µM,> 100 µM,32.2 µM,36.6 µM,> 100 µM,> 100 µM,> 100 µM,81.7 µM,> 100 µM
CN(C)CCCn1c(Cn2nc3ccccc3n2)nc2cc(C(F)(F)F)ccc21,> 100 µM,28.6 µM,> 100 µM,46.2 µM,54.1 µM,33 µM,> 100 µM,> 100 µM,35.1 µM,40.8 µM
CCOS(=O)(=O)c1ccc(-c2c3nc(c(-c4ccc(S(=O)(=O)OCC)cc4)c4ccc([nH]4)c(-c4ccc(S(=O)(=O)OCC)cc4)c4nc(c(-c5ccc(S(=O)(=O)OCC)cc5)c5ccc2[nH]5)C=C4)C=C3)cc1,> 31.6 µM,> 31.6 µM,> 31.6 µM,> 100 µM,> 31.6 µM,> 31.6 µM,> 31.6 µM,> 31.6 µM,> 31.6 µM,> 31.6 µM
O=c1[nH]cnc2c1cnn2Cc1cnnn1COCCO,> 100 µM,> 100 µM,> 100 µM,> 100 µM,> 100 µM,90.5 µM,> 100 µM,> 100 µM,> 100 µM,> 100 µM
CCN(CC)CCC1CCCCN1CC(=O)N1c2cc(Cl)ccc2NC(=O)CC1C (configuration not stated),> 100 µM,> 100 µM,> 100 µM,> 100 µM,> 100 µM,> 100 µM,> 100 µM,> 100 µM,> 100 µM,> 100 µM
COC(=O)c1c(O)ccc2c1c1c(n2Cc2cccc(C)c2)C(=O)c2ccccc2C1,> 75 µM,22.3 µM,10.4 µM,19.9 µM,–,42.7 µM,> 75 µM,> 75 µM,32.7 µM,> 75 µM
CCN(C(=O)N[C@H](C(=O)N[C@@H](CSC)C(=O)N[C@@H](C)C(=O)OC)C(C)C)c1ccccc1,28.9 µM,32.4 µM,28.7 µM,27.2 µM,29.1 µM,27.8 µM,–,33.4 µM,76.3 µM,27 µM
COc1ccc(-c2oc3cc(O)c(OC)c(O)c3c(=O)c2O)cc1,10.7 µM,> 80.6 µM,> 100 µM,> 100 µM,> 100 µM,> 100 µM,> 77.1 µM,> 100 µM,> 100 µM,> 87.8 µM
